Data as given in patent publication US20100137313A1 (ASTRAZENECA AB, priority 2008, published 2010).

The compounds below were run against S. pneumoniae Topoisomerase IV ATPase (ParE) (Streptococcus pneumoniae serotype 4, UniProt Q59961) (assay: S. pneumoniae Topoisomerase IV ATPase inhibition). Details: values marked * are an average of two or more data points, read-out: % Inh (13 μM) of S. pneumoniae Topoisomerase IV ATPase.
Chain of S. pneumoniae Topoisomerase IV ATPase (ParE) (Q59961 whole entry): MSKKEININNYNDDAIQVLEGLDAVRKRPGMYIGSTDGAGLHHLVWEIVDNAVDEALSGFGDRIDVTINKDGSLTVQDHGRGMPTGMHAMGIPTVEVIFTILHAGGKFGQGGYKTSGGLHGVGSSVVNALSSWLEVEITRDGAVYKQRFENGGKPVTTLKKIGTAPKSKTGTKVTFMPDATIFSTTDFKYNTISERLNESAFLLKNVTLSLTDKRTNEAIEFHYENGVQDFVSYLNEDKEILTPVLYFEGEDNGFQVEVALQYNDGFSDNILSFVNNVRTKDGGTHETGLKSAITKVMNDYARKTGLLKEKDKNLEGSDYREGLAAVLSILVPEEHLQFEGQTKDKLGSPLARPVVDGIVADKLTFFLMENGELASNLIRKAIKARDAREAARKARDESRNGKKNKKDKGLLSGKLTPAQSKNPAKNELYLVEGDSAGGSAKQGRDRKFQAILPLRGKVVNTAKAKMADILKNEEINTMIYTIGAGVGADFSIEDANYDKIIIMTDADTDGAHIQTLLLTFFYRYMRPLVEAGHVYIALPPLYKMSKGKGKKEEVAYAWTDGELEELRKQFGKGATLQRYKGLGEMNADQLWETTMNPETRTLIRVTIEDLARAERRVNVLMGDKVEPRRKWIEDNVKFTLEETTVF
Type: biochemical
How it was run: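 Malachite green/ammonium molybdate phosphate detection, A650. 1.25 nM ParE, 160 μM ATP, sheared salmon sperm DNA 5 μg/ml, 20 mM Tris pH 8.0, 8.0 mM MgCl2. Controls: 2% DMSO = 0%, 20 μM EDTA = 100% inhibition; IC50 over 10 concentrations.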
`COc1cc(Nc2ncc(-c3cnc(SC)c(C(=O)O)c3)c(-n3nc(C(F)(F)F)cc3C)n2)cc(OC)c1` [Example 854, 5-{2-[(3,5-dimethoxyphenyl)amino]-4-[5-methyl-3-(trifluoromethyl)-1H-pyrazol-1-yl]pyrimidin-5-yl}-2-(methylsulfanyl)pyridine-3-carboxylic acid] was tested, and the inhibition at 13 µM was 100%. In the case of `COc1cc(Nc2ncc(-c3cnc(SC)c(C(=O)NS(C)(=O)=O)c3)c(-n3nc(C(F)(F)F)cc3C)n2)cc(OC)c1` [Example 855, 5-{2-[(3,5-dimethoxyphenyl)amino]-4-[5-methyl-3-(trifluoromethyl)-1H-pyrazol-1-yl]pyrimidin-5-yl}-2-(methylsulfanyl)-N-(methylsulfonyl)pyridine-3-carboxamide], the inhibition at 13 µM is reported as 94%. `COc1cc(C)cc(Nc2ncc(-c3cnc(OC)c(C(=O)NS(C)(=O)=O)c3)c(-n3ccc(C(F)(F)F)n3)n2)c1` [Example 856, 2-methoxy-5-{2-[(3-methoxy-5-methylphenyl)amino]-4-[3-(trifluoromethyl)-1H-pyrazol-1-yl]pyrimidin-5-yl}-N-(methylsulfonyl)pyridine-3-carboxamide] gave an inhibition at 13 µM of 100%. `COc1cc(C)cc(Nc2ncc(-c3cnc(OC)c(C(=O)NS(C)(=O)=O)c3)c(-n3nc(C(F)(F)F)cc3C)n2)c1` [Example 857, 2-methoxy-5-{2-[(3-methoxy-5-methylphenyl)amino]-4-[5-methyl-3-(trifluoromethyl)-1H-pyrazol-1-yl]pyrimidin-5-yl}-N-(methylsulfonyl)pyridine-3-carboxamide] gave an inhibition at 13 µM of 100%. Work on `COc1cc(C)cc(Nc2ncc(-c3cc(C(=O)O)c(=O)n(C)c3)c(-n3ccc(C(F)(F)F)n3)n2)c1` [Example 859, 5-{2-[(3-methoxy-5-methylphenyl)amino]-4-[3-(trifluoromethyl)-1H-pyrazol-1-yl]pyrimidin-5-yl}-1-methyl-2-oxo-1,2-dihydropyridine-3-carboxylic acid] yielded an inhibition at 13 µM of 100%. For `COc1cc(C)cc(Nc2ncc(-c3cc(C(=O)O)c(=O)n(C)c3)c(-n3nc(C(F)(F)F)cc3C)n2)c1` [Example 861, 5-{2-[(3-methoxy-5-methylphenyl)amino]-4-[5-methyl-3-(trifluoromethyl)-1H-pyrazol-1-yl]pyrimidin-5-yl}-1-methyl-2-oxo-1,2-dihydropyridine-3-carboxylic acid], the inhibition at 13 µM was 100%. In the case of `CCn1cc(-c2cnc(Nc3cc(C)cc(OC)c3)nc2-n2nc(C(F)(F)F)cc2C)cc(C(=O)O)c1=O` [Example 863, 1-ethyl-5-{2-[(3-methoxy-5-methylphenyl)amino]-4-[5-methyl-3-(trifluoromethyl)-1H-pyrazol-1-yl]pyrimidin-5-yl}-2-oxo-1,2-dihydropyridine-3-carboxylic acid], the inhibition at 13 µM is reported as 100%. With `COc1cc(Nc2ncc(-c3cnc(OC)c(C#N)c3)c(-n3nc(C(F)(F)F)cc3C)n2)cc(OC)c1` [Example 868, 5-(2-(3,5-dimethoxyphenylamino)-4-(5-methyl-3-(trifluoromethyl)-1H-pyrazol-1-yl)pyrimidin-5-yl)-2-methoxynicotinonitrile] the inhibition at 13 µM was 6%. In the case of `COCC(COC)Oc1ncc(-c2cnc(Nc3ccc(F)c(Cl)c3)nc2-n2ccc(C(F)(F)F)n2)cc1C(=O)O` [Example 869, 5-(2-(3-chloro-4-fluorophenylamino)-4-(3-(trifluoromethyl)-1H-pyrazol-1-yl)pyrimidin-5-yl)-2-(1,3-dimethoxypropan-2-yloxy)nicotinic acid], the inhibition at 13 µM is reported as 93%. For `COCC(COC)Oc1ncc(-c2cnc(Nc3ccc(F)c(Cl)c3)nc2-n2nc(C(F)(F)F)cc2C)cc1C(=O)O` [Example 870, 5-(2-(3-chloro-4-fluorophenylamino)-4-(5-methyl-3-(trifluoromethyl)-1H-pyrazol-1-yl)pyrimidin-5-yl)-2-(1,3-dimethoxypropan-2-yloxy)nicotinic acid], the inhibition at 13 µM was 100%. In the case of `Cc1cc(C(F)(F)F)nn1-c1nc(Nc2ccc(F)c(Cl)c2)ncc1-c1cnc(OCCc2ccncc2)c(C(=O)O)c1` [Example 871, 5-(2-(3-chloro-4-fluorophenylamino)-4-(5-methyl-3-(trifluoromethyl) 1H-pyrazol-1-yl)pyrimidin-5-yl)-2-(2-(pyridin-4-yl)ethoxy)nicotinic acid], the inhibition at 13 µM is reported as 100%. Compound `O=C(O)c1cc(-c2cnc(Nc3ccc(F)c(Cl)c3)nc2-n2ccc(C(F)(F)F)n2)cnc1OCCc1ccncc1` [Example 872, 5-(2-(3-chloro-4-fluorophenylamino)-4-(3-(trifluoromethyl)-1H-pyrazol-1-yl)pyrimidin-5-yl)-2-(2-(pyridin-4-yl)ethoxy)nicotinic acid] has an inhibition at 13 µM of 100%. `COc1cc(Nc2ncc(-c3cnc(OC)c(-c4nnn[nH]4)c3)c(-n3nc(C(F)(F)F)cc3C)n2)cc(OC)c1` [Example 873, N-(3,5-dimethoxyphenyl)-5-(6-methoxy-5-(1H-tetrazol-5-yl)pyridin-3-yl)-4-(5-methyl-3-(trifluoromethyl)-1H-pyrazol-1-yl)pyrimidin-2-amine] was tested, and the inhibition at 13 µM was 100%. Compound `CS(=O)(=O)NC(=O)c1cncc(-c2cnc(Nc3ccc(F)c(Cl)c3)nc2-n2ccc(C(F)(F)F)n2)c1` [Example 874, 5-(2-(3-chloro-4-fluorophenylamino)-4-(3-(trifluoromethyl)-1H-pyrazol-1-yl)pyrimidin-5-yl)-N-(methylsulfonyl)nicotinamide] has an inhibition at 13 µM of 100%. With `O=C(O)/C=C/c1cccc(-c2cnc(Nc3ccc(F)c(Cl)c3)nc2-n2ccc(C3CC3)n2)c1` [Example 875, (E)-3-(3-(2-(3-chloro-4-fluorophenylamino)-4-(3-cyclopropyl-1H-pyrazol-1-yl)pyrimidin-5-yl)phenyl)acrylic acid] the inhibition at 13 µM was 98%. In the case of `COc1cccc(-c2cnc(Nc3ccc(F)c(Cl)c3)nc2-n2ccc(C(F)(F)F)n2)n1` [Example 876, N-(3-chloro-4-fluorophenyl)-5-(6-methoxypyridin-2-yl)-4-(3-(trifluoromethyl)-1H-pyrazol-1-yl)pyrimidin-2-amine], the inhibition at 13 µM is reported as 0%. `O=C(O)c1cccc(-c2cnc(Nc3ccc(F)c(Cl)c3)nc2-n2ccc(C(F)(F)F)n2)n1` [Example 877, 6-(2-(3-chloro-4-fluorophenylamino)-4-(3-(trifluoromethyl)-1H-pyrazol-1-yl)pyrimidin-5-yl)picolinic acid] showed an inhibition at 13 µM of 100%. Work on `CN(C(=O)c1cccc(-c2cnc(Nc3ccc(F)c(Cl)c3)nc2-n2ccc(C(F)(F)F)n2)c1)S(C)(=O)=O` [Example 878, 3-(2-(3-chloro-4-fluorophenylamino)-4-(3-(trifluoromethyl)-1H-pyrazol-1-yl)pyrimidin-5-yl)-N-methyl-N-(methylsulfonyl)benzamide] yielded an inhibition at 13 µM of 88%. `Cc1cc(C(=O)O)nc(-c2cnc(Nc3ccc(F)c(Cl)c3)nc2-n2ccc(C(F)(F)F)n2)n1` [Example 879, 2′-(3-chloro-4-fluorophenylamino)-6-methyl-4′-(3-(trifluoromethyl)-1H-pyrazol-1-yl)-2,5′-bipyrimidine-4-carboxylic acid] gave an inhibition at 13 µM of 91%. `COc1cc(Nc2ncc(-c3cccc(/C=C/C(=O)O)c3)c(-n3nc(C(F)(F)F)cc3C)n2)cc(C(F)(F)F)c1` [Example 880, (E)-3-(3-(2-(3-methoxy-5-(trifluoromethyl)phenylamino)-4-(5-methyl-3-(trifluoromethyl)-1H-pyrazol-1-yl)pyrimidin-5-yl)phenyl)acrylic acid] gave an inhibition at 13 µM of 91%. `COc1cc(Nc2ncc(-c3cncc(C(=O)CS(C)(=O)=O)c3)c(-n3nc(C(F)(F)F)cc3C)n2)cc(C(F)(F)F)c1` [Example 881, 1-(5-(2-(3-methoxy-5-(trifluoromethyl)phenylamino)-4-(5-methyl-3-(trifluoromethyl)-1H-pyrazol-1-yl)pyrimidin-5-yl)pyridin-3-yl)-2-(methylsulfonyl)ethanone] showed an inhibition at 13 µM of 97%. `COc1cc(Nc2ncc(-c3cncnc3)c(-n3nc(C(F)(F)F)cc3C)n2)cc(C(F)(F)F)c1` [Example 882, N-(3-methoxy-5-(trifluoromethyl)phenyl)-4-(5-methyl-3-(trifluoromethyl)-1H-pyrazol-1-yl)-5,5′-bipyrimidin-2-amine] gave an inhibition at 13 µM of 100%. Work on `COc1cc(Nc2ncc(-c3ccc(C(=O)O)s3)c(-n3nc(C(F)(F)F)cc3C)n2)cc(C(F)(F)F)c1` [Example 883, 5-(2-(3-methoxy-5-(trifluoromethyl)phenylamino)-4-(5-methyl-3-(trifluoromethyl)-1H-pyrazol-1-yl)pyrimidin-5-yl)thiophene-2-carboxylic acid] yielded an inhibition at 13 µM of 99%. In the case of `COc1cc(Nc2ncc(-c3cccnc3)c(-n3nc(C(F)(F)F)cc3C)n2)cc(C(F)(F)F)c1` [Example 884, N-(3-methoxy-5-(trifluoromethyl)phenyl)-4-(5-methyl-3-(trifluoromethyl)-1H-pyrazol-1-yl)-5-(pyridin-3-yl)pyrimidin-2-amine], the inhibition at 13 µM is reported as 100%. For `COc1cc(Nc2ncc(-c3cnc(OC)nc3)c(-n3nc(C(F)(F)F)cc3C)n2)cc(C(F)(F)F)c1` [Example 885, 2′-methoxy-N-(3-methoxy-5-(trifluoromethyl)phenyl)-4-(5-methyl-3-(trifluoromethyl)-1H-pyrazol-1-yl)-5,5′-bipyrimidin-2-amine], the inhibition at 13 µM was 100%. `COc1cc(F)cc(Nc2ncc(-c3ccc(C(=O)O)s3)c(-n3ccc(C(F)(F)F)n3)n2)c1` [Example 887, 5-(2-(3-fluoro-5-methoxyphenylamino)-4-(3-(trifluoromethyl)-1H-pyrazol-1-yl)pyrimidin-5-yl)thiophene-2-carboxylic acid] was tested, and the inhibition at 13 µM was 100%. For `N#Cc1cc(-c2cnc(Nc3ccc(F)c(Cl)c3)nc2-n2ccc(C(F)(F)F)n2)ccn1` [Example 890, 4-(2-(3-chloro-4-fluorophenylamino)-4-(3-(trifluoromethyl)-1H-pyrazol-1-yl)pyrimidin-5-yl)picolinonitrile], the inhibition at 13 µM was 91%.
